Results: US20110236504A1, “VERSATILE DISINFECTANT” (priority 2008, published 2011)
Values joined by “and” are separate entries in the source; they are usually repeats but may differ in a detail not shown here. Identical values can stand only once.

Key:
S. aureus 209P [1] = test: 100% death time on contact with solution; type: cell-based
From the text: Examples of the effect are shown below.

E. coli O-157 [2] = test: Metal ion or food preservative added to growth medium, viable count; type: cell-based; conditions: metal ion in growth medium
Description: (§1) To a standard medium for counting viable bacteria described below, each metal ion with varied concentration was added. […] Then, the number of viable bacteria was counted with time in a common procedure.
(§2) Sample bacteria: S. aureus 209P as a representative of Gram-positive bacteria • E. coli 0-157 as a representative of Gram-negative bacteria
(§3) Standard medium for counting viable bacteria: yeast extract 2.5 g, peptone 5 g, glucose 1 g, agar 15 g, pH 7.2

S. aureus 209P [3] = test: as above; type: cell-based; conditions: metal ion in growth medium
Description: as §1, §2, §3

E. coli O-157 [4] = test: 100% death time on contact with solution
[5] = test system: viable bacteria in saliva; test: Effect of gargle, viable bacteria in saliva; type: in vivo, persons; conditions: for number of viable bacteria in saliva, relative value: before gargle = 100, one value per person
Description: Next, the efficacy of the disinfectant was examined when it is used for a gargle. The number of viable bacteria was counted in 1 ml of saliva that was collected from each of three persons before a gargle. Then, each person gargled three times each for 20 seconds, that is, gargled for total of 1 minute, with the disinfectant of the present invention that was prepared in Preparation Example 6. Each saliva was collected immediately after the gargle and at 15 minutes, 30 minutes, and 60 minutes after the gargle. The number of viable bacteria was counted per 1 ml of the saliva, and the effect of gargle was determined. Here, the number of viable bacteria before gargle is regarded as 100, and relative values are shown.
As a control, each of two persons was gargled with tap water or 1000 ppm povidone-iodine in a similar way.

[6] = Cu^2+ 50 ppm + L-ascorbic acid 100 ppm
[7] = Cu^2+ 50 ppm + L-ascorbic acid 100 ppm + potassium sorbate 50 ppm
[8] = Cu^2+ 50 ppm + potassium sorbate 50 ppm
[9] = Cu^2+ 50 ppm + sodium lauryl sulfate 50 ppm
[10] = Cu^2+ 50 ppm + sodium lauryl sulfate 50 ppm + L-ascorbic acid 100 ppm
[11] = Cu^2+ 50 ppm + sodium lauryl sulfate 50 ppm + L-ascorbic acid 100 ppm + potassium sorbate 50 ppm

Q: With `O.O.O.O.O.O=S(=O)([O-])[O-].[Cu+2]` [Cu^2+, CuSO4•5H2O] as the molecule, how does the 100% death time (S. aureus 209P [1]; [6]) read?
A: 60 min

Q: And the 100% death time (S. aureus 209P [1]; [7])?
A: 50 min

Q: What about the 100% death time (S. aureus 209P [1]; [8]) of the same molecule?
A: 75 min

Q: What about the 100% death time (S. aureus 209P [1]; [9]) of the same molecule?
A: 1.5 min

Q: What about the 100% death time (S. aureus 209P [1]; [10]) of the same molecule?
A: 1 min

Q: And the 100% death time (S. aureus 209P [1]; [11])?
A: 0.75 min

Q: And the 100% death time (S. aureus 209P [1]; Cu^2+ ion 50 ppm alone)?
A: 90 min

Q: What about the “(a) Antiproliferative activity, concentration” value (E. coli O-157 [2]) of the same molecule?
A: 5~30 ppm

Q: What about the “(b) Bacteriostatic activity, concentration” value (E. coli O-157 [2]) of the same molecule?
A: 25~120 ppm

Q: What about the “(c) Bactericidal activity, concentration” value (E. coli O-157 [2]) of the same molecule?
A: 100 ppm>

Q: And the “Acceleration of growth, concentration” value (E. coli O-157 [2])?
A: 5 ppm<

Q: What about the “(a) Antiproliferative activity, concentration” value (S. aureus 209P [3]) of the same molecule?
A: 10~50 ppm

Q: What about the “(b) Bacteriostatic activity, concentration” value (S. aureus 209P [3]) of the same molecule?
A: 40~150 ppm

Q: What about the “Acceleration of growth, concentration” value (S. aureus 209P [3]) of the same molecule?
A: 5 ppm<

Q: What about the 100% death time (E. coli O-157 [4]; [6]) of the same molecule?
A: 60 min

Q: What about the 100% death time (E. coli O-157 [4]; [7]) of the same molecule?
A: 45 min

Q: And the 100% death time (E. coli O-157 [4]; [8])?
A: 70 min

Q: What about the 100% death time (E. coli O-157 [4]; [9]) of the same molecule?
A: 1 min

Q: What about the 100% death time (E. coli O-157 [4]; [10]) of the same molecule?
A: 1 min

Q: What about the 100% death time (E. coli O-157 [4]; [11]) of the same molecule?
A: 0.5 min

Q: And the 100% death time (E. coli O-157 [4]; Cu^2+ ion 50 ppm alone)?
A: 90 min

Q: How did the “number of bacteria in saliva relative to before gargle” value ([5]; after 60 minutes) turn out when povidone-iodine was run?
A: 30 to 40%

Q: What about the “number of viable bacteria in saliva, relative value” (“number … relative value” below) ([5]; after 15 min) of the same molecule?
A: 5 and 8

Q: What about the “number … relative value” ([5]; after 30 min) of the same molecule?
A: 18 and 20

Q: What about the “number … relative value” ([5]; after 60 min) of the same molecule?
A: 30 and 40

Q: What about the “number … relative value” ([5]; immediately after gargle) of the same molecule?
A: 2

Q: And the “number of bacteria in saliva relative to before gargle” value ([5]; immediately after the gargle)?
A: 2%
